Assay results published in patent US6472348B1, “Pyridone derivatives and herbicides” (Kumiai Chemical Industry Co., Ltd., priority 1996, dated 2002).

What was measured:
Type in all cases: in vivo
soybean (Gl) = assay: Test Example 6: crop plant selectivity by upland field soil treatment (soybean), phytotoxicity; design: scale not given here; settings: dose 6.3 g ai/10a, 21st day after application
Description: (§1) (Test on Crop Plant Selectivity by Upland Field Soil Treatment)
(§2) In a plastic pot (surface area: 600 cm^2) filled with sand, soybean (Gl), Diaitaria ciliaris (Di), green foxtail (Se), Johnsongrass (So), pale smartweed (Po), slender amaranth (Am), common lambsquarters (Ch) and China jute (Ab) were sown and covered with soil. […] The plants were then cultured in a green house, and the evaluation of the herbicidal effects and phytotoxicity was conducted on the 21st day after the application in accordance with the standards as identified in Table 47. Symbol—represents “not tested”.

slender amaranth (Am) [1] = assay: Test Example 5: crop plant selectivity by upland field soil treatment (wheat), herbicidal effects; design: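 grade of growth control; 5 = at least 90%; 4 = 70 to 90%; 3 = 50 to 70%; 2 = 30 to 50%; 1 = 10 to 30%; 0 = under 10%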; settings: dose 6.3 g ai/10a, 21st day after application
Description: as §1
(§3) In a plastic pot (surface area: 600 cm^2) filled with sand, wheat (Tr), Diaitaria ciliaris (Di), green foxtail (Se), pale smartweed (Po), slender amaranth (Am), common lambsquarters (Ch) and China jute (Ab) were sown and covered with soil. […] The plants were then cultured in a green house, and the evaluation of the herbicidal effects and phytotoxicity was conducted on the 21st day after the application in accordance with the standards as identified in Table 47. Symbol—represents “not tested”.

green foxtail (Se) [2] = assay: as above; design: scale not given here; settings: dose 6.3 g ai/10a, 21st day after application
Description: as §1, §3

pale smartweed (Po) [3] = assay: as above; design: scale not given here; settings: dose 6.3 g ai/10a, 21st day after application
Description: as §1, §3

China jute (Ab) [4] = assay: as above; design: scale not given here; settings: dose 6.3 g ai/10a, 21st day after application
Description: as §1, §3

[5] = test system: common lambsquarters (Ch); assay: as above; design: scale not given here; settings: dose 6.3 g ai/10a, 21st day after application
Description: as §1, §3

barnyardgrass (Ec) [6] = assay: Test Example 1: herbicidal effects by paddy field soil treatment; settings: 100 g of the active ingredient per 10 ares, 21st day after the application, index 0-5 of Table 47;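 further: grade of growth control; 5 = at least 90%; 4 = 70 to 90%; 3 = 50 to 70%; 2 = 30 to 50%; 1 = 10 to 30%; 0 = under 10%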
Procedure, shortened: (§4)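 Flooded paddy-soil pots (3 cm water) sown after puddling/leveling; treatment 100 g a.i./10 ares; greenhouse culture; herbicidal effect rated visually on a scoring scale at 21 d post-application.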

bulrush (Sc) = assay: as above; settings: 100 g of the active ingredient per 10 ares, 21st day after the application, index 0-5 of Table 47;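 further: grade of growth control; 5 = at least 90%; 4 = 70 to 90%; 3 = 50 to 70%; 2 = 30 to 50%; 1 = 10 to 30%; 0 = under 10%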
Procedure, shortened: as §4

monochoria (Mo) = assay: as above; settings: 100 g of the active ingredient per 10 ares, 21st day after the application, index 0-5 of Table 47;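 further: grade of growth control; 5 = at least 90%; 4 = 70 to 90%; 3 = 50 to 70%; 2 = 30 to 50%; 1 = 10 to 30%; 0 = under 10%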
Procedure, shortened: as §4

cotton (Go) = assay: Test Example 4: crop plant selectivity by upland field soil treatment (cotton), phytotoxicity; design: scale not given here; settings: dose 6.3 g ai/10 a, evaluated 21st day after application
Description: as §1
(§5) In a plastic pot (surface area: 600 cm^2) filled with sand, cotton (Go), Diaitaria ciliaris (Di), green foxtail (Se), pale smartweed (Po), slender amaranth (Am), common lambsquarters (Ch) and China jute (Ab) were sown and covered with soil. […] The plants were then cultured in a green house, and the evaluation of the herbicidal effects and phytotoxicity was conducted on the 21st day after the application in accordance with the standards as identified in Table 47. Symbol—represents “not tested”.

slender amaranth (Am) [7] = assay: Test Example 3: herbicidal effects by upland field foliage treatment; design: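 grade of growth control; 5 = at least 90%; 4 = 70 to 90%; 3 = 50 to 70%; 2 = 30 to 50%; 1 = 10 to 30%; 0 = under 10%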; settings: 100 g of the active ingredient per 10 ares, evaluated on the 14th day after treatment
Procedure, shortened: (§6)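 Scoring used a standard effect scale on the 14th day post-treatment, with plants held in a greenhouse throughout. Foliar application was made to weeds raised from seed in sand-filled pots for 2 weeks.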

Diaitaria ciliaris (Di) = assay: as above; design: scale not given here; settings: 100 g of the active ingredient per 10 ares, evaluated on the 14th day after treatment
Procedure, shortened: as §6

barnyardgrass (Ec) [8] = assay: as above; design: scale not given here; settings: 100 g of the active ingredient per 10 ares, evaluated on the 14th day after treatment
Procedure, shortened: as §6

rice flatsedge (Ci) [9] = assay: as above; design: scale not given here; settings: 100 g of the active ingredient per 10 ares, evaluated on the 14th day after treatment
Procedure, shortened: as §6

pale smartweed (Po) [10] = assay: as above; design: scale not given here; settings: 100 g of the active ingredient per 10 ares, evaluated on the 14th day after treatment
Procedure, shortened: as §6

[11] = test system: common lambsquarters (Ch); assay: as above; design: scale not given here; settings: 100 g of the active ingredient per 10 ares, evaluated on the 14th day after treatment
Procedure, shortened: as §6

slender amaranth (Am) [12] = assay: Test Example 4: crop plant selectivity by upland field soil treatment (cotton), herbicidal effects; design: scale not given here; settings: dose 6.3 g ai/10 a, evaluated 21st day after application
Description: as §1, §5

green foxtail (Se) [13] = assay: as above; design: scale not given here; settings: dose 6.3 g ai/10 a, evaluated 21st day after application
Description: as §1, §5

pale smartweed (Po) [14] = assay: as above; design: scale not given here; settings: dose 6.3 g ai/10 a, evaluated 21st day after application
Description: as §1, §5

China jute (Ab) [15] = assay: as above; design: scale not given here; settings: dose 6.3 g ai/10 a, evaluated 21st day after application
Description: as §1, §5

[16] = test system: common lambsquarters (Ch); assay: as above; design: scale not given here; settings: dose 6.3 g ai/10 a, evaluated 21st day after application
Description: as §1, §5

slender amaranth (Am) [17] = assay: Test Example 2: herbicidal effects by upland field soil treatment; settings: 100 g of the active ingredient per 10 ares, 21st day after the application, index 0-5 of Table 47;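 further: grade of growth control; 5 = at least 90%; 4 = 70 to 90%; 3 = 50 to 70%; 2 = 30 to 50%; 1 = 10 to 30%; 0 = under 10%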
Excerpt: (§7) (Test on Herbicidal Effects by Upland Field Soil Treatment)

Digitaria ciliaris (Di) = assay: as above; settings: 100 g of the active ingredient per 10 ares, 21st day after the application, index 0-5 of Table 47
Excerpt: as §7

barnyardgrass (Ec) [18] = assay: as above; settings: 100 g of the active ingredient per 10 ares, 21st day after the application, index 0-5 of Table 47
Excerpt: as §7

rice flatsedge (Ci) [19] = assay: as above; settings: 100 g of the active ingredient per 10 ares, 21st day after the application, index 0-5 of Table 47
Excerpt: as §7

pale smartweed (Po) [20] = assay: as above; settings: 100 g of the active ingredient per 10 ares, 21st day after the application, index 0-5 of Table 47
Excerpt: as §7

[21] = test system: common lambsquarters (Ch); assay: as above; settings: 100 g of the active ingredient per 10 ares, 21st day after the application, index 0-5 of Table 47
Excerpt: as §7

wheat (Tr) = assay: Test Example 5: crop plant selectivity by upland field soil treatment (wheat), phytotoxicity; design: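 grade of crop injury; 5 = at least 90%; 4 = 70 to 90%; 3 = 50 to 70%; 2 = 30 to 50%; 1 = 10 to 30%; 0 = under 10%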; settings: dose 6.3 g ai/10a, 21st day after application
Description: as §1, §3

slender amaranth (Am) [22] = assay: Test Example 6: crop plant selectivity by upland field soil treatment (soybean), herbicidal effects; design: scale not given here; settings: dose 6.3 g ai/10a, 21st day after application
Description: as §1, §2

green foxtail (Se) [23] = assay: as above; design: scale not given here; settings: dose 6.3 g ai/10a, 21st day after application
Description: as §1, §2

pale smartweed (Po) [24] = assay: as above; design: scale not given here; settings: dose 6.3 g ai/10a, 21st day after application
Description: as §1, §2

China jute (Ab) [25] = assay: as above; design: scale not given here; settings: dose 6.3 g ai/10a, 21st day after application
Description: as §1, §2

[26] = test system: common lambsquarters (Ch); assay: as above; design: scale not given here; settings: dose 6.3 g ai/10a, 21st day after application
Description: as §1, §2

## C=C(C)COc1cc(-c2ccc(C(F)(F)F)n(C)c2=O)c(F)cc1Cl [1-151]
Soybean (Gl)
  Phytotoxicity Gl: 0
Slender amaranth (Am) [1]
  Herbicidal effects Am: 5
Green foxtail (Se) [2]
  Herbicidal effects Se: 5
Pale smartweed (Po) [3]
  Herbicidal effects Po: 5
China jute (Ab) [4]
  Herbicidal effects Ab: 5
[5]
  Herbicidal effects Ch: 5
Barnyardgrass (Ec) [6]
  Herbicidal effects Ec: 5
Bulrush (Sc)
  Herbicidal effects Sc: 5
Monochoria (Mo)
  Herbicidal effects Mo: 5
Cotton (Go)
  Phytotoxicity Go: 1
Slender amaranth (Am) [7]
  Herbicidal effects Am: 5
Diaitaria ciliaris (Di)
  Herbicidal effects Di: 5
Barnyardgrass (Ec) [8]
  Herbicidal effects Ec: 5
Rice flatsedge (Ci) [9]
  Herbicidal effects Ci: 5
Pale smartweed (Po) [10]
  Herbicidal effects Po: 5
[11]
  Herbicidal effects Ch: 5
Slender amaranth (Am) [12]
  Herbicidal effects Am: 5
Green foxtail (Se) [13]
  Herbicidal effects Se: 5
Pale smartweed (Po) [14]
  Herbicidal effects Po: 5
China jute (Ab) [15]
  Herbicidal effects Ab: 5
[16]
  Herbicidal effects Ch: 5
Slender amaranth (Am) [17]
  Herbicidal effects Am: 5
Digitaria ciliaris (Di)
  Herbicidal effects Di: 5
Barnyardgrass (Ec) [18]
  Herbicidal effects Ec: 5
Rice flatsedge (Ci) [19]
  Herbicidal effects Ci: 5
Pale smartweed (Po) [20]
  Herbicidal effects Po: 5
[21]
  Herbicidal effects Ch: 5
Wheat (Tr)
  Phytotoxicity Tr: 2
Slender amaranth (Am) [22]
  Herbicidal effects Am: 5
Green foxtail (Se) [23]
  Herbicidal effects Se: 5
Pale smartweed (Po) [24]
  Herbicidal effects Po: 5
China jute (Ab) [25]
  Herbicidal effects Ab: 5
[26]
  Herbicidal effects Ch: 5
